This is an account of results in US11780826B2 (Amgen Inc., priority 2017, dated 2023).

This test concerns Bovine cardiac myofibrils. Briefly: In vitro model of dose-dependent myofibril ATPase modulation (AC1.4, pyruvate kinase/lactate dehydrogenase-coupled ATPase assay at pCa25). The test is classed as biochemical. The settings on record: concentration at which ATPase activity was 1.4-fold higher than the bottom of the dose curve, mean of a minimum of two independent tests. The method, boiled down:
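Detergent-skinned bovine cardiac myofibrils (typically 0.25-1.0 mg/ml) in Ca-buffered (EGTA/CaCl2) PK/LDH-coupled ATPase assay: 12 mM K-PIPES pH 6.80, 2 mM MgCl2, 1 mM ATP, 1 mM DTT, 0.5 mM NADH, 1.5 mM PEP. Hydrolysis followed at 340 nm; dose response fit to 4-parameter equation; AC1.4 is mean of ≥2 tests.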

SMILES strings stand for the structures.

On to `COC1CN(S(=O)(=O)N2CCC[C@H](C(=O)N3CCC[C@@H]3C(=O)NCc3ccc(C(F)(F)F)cc3)C2)C1` [Example 492, 1-(((3S)-1-((3-methoxy-1-azetidinyl)sulfonyl)-3-piperidinyl)carbonyl)-N-(4-(trifluoromethyl)benzyl)-D-prolinamide], for which the AC1.4 came out at 2.256 µM.

`O=C(O[C@@H]1C[C@H](C(=O)N[C@@H](c2cc(F)c(Cl)cc2F)C2COC2)N(C(=O)c2ccnc(C(F)(F)F)c2)C1)c1ccnc(C(F)(F)F)c1` [Example 493, (3R,5R)-5-(((R)-(4-chloro-2,5-difluorophenyl)(3-oxetanyl)methyl)carbamoyl)-1-((2-(trifluoromethyl)-4-pyridinyl)carbonyl)-3-pyrrolidinyl2-(trifluoromethyl)-4-pyridinecarboxylate] displayed an AC1.4 of 2.271 µM. Consider `C[C@@H](NC(=O)[C@H]1C[C@H](F)CN1C(=O)[C@H]1CCCN(S(=O)(=O)N2CC(C#N)C2)C1)c1cccc(C(F)(F)F)c1` [Example 494, (2R,4S)-1-((S)-1-((3-cyanoazetidin-1-yl)sulfonyl)piperidine-3-carbonyl)-4-fluoro-N-((R)-1-(3-(trifluoromethyl)phenyl)ethyl)pyrrolidine-2-carboxamide], for which the AC1.4 worked out at 2.274 µM. For the molecule `O=C(N[C@@H](c1ccc(C(F)(F)F)cc1F)C1CC1)[C@H]1C[C@H]2C[C@H]2N1C(=O)c1ccnc(C(F)(F)F)c1` [Example 495, (1R,3R,5R)-N-((R)-cyclopropyl(2-fluoro-4-(trifluoromethyl)phenyl)methyl)-2-((2-(trifluoromethyl)-4-pyridinyl)carbonyl)-2-azabicyclo[3.1.0]hexane-3-carboxamide], the AC1.4 stood at 2.278 µM.

Molecule `N#CC1CN(S(=O)(=O)N2CCC[C@H](C(=O)N3CCC[C@@H]3C(=O)NCc3cccc(F)c3)C2)C1` [Example 496, 1-(((3S)-1-((3-cyano-1-azetidinyl)sulfonyl)-3-piperidinyl)carbonyl)-N-(3-fluorobenzyl)-D-prolinamide] had an AC1.4 of 2.291 µM. The figure for `CC(C)(C(N)=O)c1cccc(C(=O)N2[C@@H](C(=O)N[C@@H](c3ccc(C(F)(F)F)cc3F)C3COC3)C[C@H]3C[C@H]32)c1` [Example 497, (1R,3R,5R)-2-(3-(1-amino-2-methyl-1-oxopropan-2-yl)benzoyl)-N—((R)-(2-fluoro-4-(trifluoromethyl)phenyl)(oxetan-3-yl)methyl)-2-azabicyclo[3.1.0]hexane-3-carboxamide] is 2.3075 µM; for `Cc1cc(F)cc(CNC(=O)[C@H]2CCCN2C(=O)[C@H]2CCCN(S(=O)(=O)N3CC(C#N)C3)C2)c1` [Example 498, 1-(((3S)-1-((3-cyano-1-azetidinyl)sulfonyl)-3-piperidinyl)carbonyl)-N-(3-fluoro-5-methylbenzyl)-D-prolinamide] it is 2.335 µM; for `CS(=O)(=O)C1CN(S(=O)(=O)N2CCC[C@H](C(=O)N3CCC[C@@H]3C(=O)NCc3ccc(C(F)(F)F)cn3)C2)C1` [Example 499, 1-(((3S)-1-((3-(methylsulfonyl)-1-azetidinyl)sulfonyl)-3-piperidinyl)carbonyl)-N-((5-(trifluoromethyl)-2-pyridinyl)methyl)-D-prolinamide] it is 2.344 µM. `O=C(N[C@@H](c1cc(F)c(Cl)cc1F)C1COC1)[C@H]1C[C@H]2C[C@H]2N1C(=O)c1ccnc(C(F)(F)F)n1` [Example 500, (1R,3R,5R)-N-((R)-(4-chloro-2,5-difluorophenyl)(3-oxetanyl)methyl)-2-((2-(trifluoromethyl)-4-pyrimidinyl)carbonyl)-2-azabicyclo[3.1.0]hexane-3-carboxamide]: the AC1.4 amounted to 2.346 µM.

In the case of `O=C(N[C@@H](c1cc(F)c(Cl)cc1F)C1COC1)[C@H]1C[C@@H](O)CN1C(=O)c1ccnc(C(F)F)c1` [Example 501, (4R)-N-((R)-(4-chloro-2,5-difluorophenyl)(3-oxetanyl)methyl)-1-((2-(difluoromethyl)-4-pyridinyl)carbonyl)-4-hydroxy-D-prolinamide], the AC1.4 stood at 2.3495 µM. Turning to `N#CC1CN(S(=O)(=O)N2CCC[C@H](C(=O)N3CCC[C@@H]3C(=O)NC3CCOc4ccccc43)C2)C1` (stereo partly drawn) [Example 502, (2R)-N-(chroman-4-yl)-1-((S)-1-((3-cyanoazetidin-l-yl)sulfonyl)piperidine-3-carbonyl)pyrrolidine-2-carboxamide], the AC1.4 was found to be 2.3515 µM.

The molecule `N#CC1CN(S(=O)(=O)N2CC(C(=O)N3CCC[C@@H]3C(=O)NCc3ccc(C(F)(F)F)cc3)C3CC32)C1` (stereo partly drawn) [Example 503, (2R)-1-(2-((3-cyanoazetidin-1-yl)sulfonyl)-2-azabicyclo[3.1.0]hexane-4-carbonyl)-N-(4-(trifluoromethyl)benzyl)pyrrolidine-2-carboxamide] yielded an AC1.4 of 2.3565 µM. Turning to `CC(C)c1cc(C(=O)N2[C@@H](C(=O)N[C@@H](c3cc(F)c(Cl)cc3F)C3COC3)C[C@H]3C[C@H]32)ccn1` [Example 504, (1R,3R,5R)-N-((R)-(4-chloro-2,5-difluorophenyl)(3-oxetanyl)methyl)-2-((2-(2-propanyl)-4-pyridinyl)carbonyl)-2-azabicyclo[3.1.0]hexane-3-carboxamide], the AC1.4 stood at 2.3635 µM. In turn, `CS(=O)(=O)c1ccc(C(=O)N2CCC[C@@H]2C(=O)N[C@@H](c2ccc(C(F)(F)F)cc2F)C2CC2)cn1` [Example 505, N-((R)-cyclopropyl(2-fluoro-4-(trifluoromethyl)phenyl)methyl)-1-((6-(methylsulfonyl)-3-pyridinyl)carbonyl)-D-prolinamidev] yielded an AC1.4 of 2.1945 µM.

As to `CS(=O)(=O)c1cccc(C(=O)N2C[C@H](O)C[C@@H]2C(=O)N[C@@H](c2ccc(C(F)(F)F)cc2F)C2CC2)c1` [Example 506, (4R)-N-((R)-cyclopropyl(2-fluoro-4-(trifluoromethyl)phenyl)methyl)-4-hydroxy-1-(3-(methylsulfonyl)benzoyl)-D-prolinamide], the AC1.4 came out at 2.23 µM.

`N#CC1CC(S(=O)(=O)c2cccc(C(=O)N3CCC[C@@H]3C(=O)NCc3ccc(C(F)(F)F)nc3)c2)C1` (stereo partly drawn) [Example 507, (R)-1-(3-((3-cyanocyclobutyl)sulfonyl)benzoyl)-N-((6-(trifluoromethyl)pyridin-3-yl)methyl)pyrrolidine-2-carboxamide] returned an AC1.4 of 2.38 µM. The molecule `Cc1ccc(F)cc1CNC(=O)[C@H]1CCCN1C(=O)[C@H]1CCCN(S(=O)(=O)N2CC(C#N)C2)C1` [Example 508, 1-(((3S)-1-((3-cyano-1-azetidinyl)sulfonyl)-3-piperidinyl)carbonyl)-N-(5-fluoro-2-methylbenzyl)-D-prolinamide] yielded an AC1.4 of 2.3805 µM. As for `CCC1(O)CN(S(=O)(=O)N2CCC[C@H](C(=O)N3CCC[C@@H]3C(=O)NCc3ccc(C(F)(F)F)cc3F)C2)C1` [Example 509, 1-(((3S)-1-((3-ethyl-3-hydroxy-1-azetidinyl)sulfonyl)-3-piperidinyl)carbonyl)-N-(2-fluoro-4-(trifluoromethyl)benzyl)-D-prolinamide], the AC1.4 is 2.3995 µM. Turning to `CS(=O)(=O)c1cc(C(=O)N2C[C@@H](F)C[C@@H]2C(=O)N[C@@H](c2cc(F)c(Cl)cc2F)C2CC2)ccn1` [Example 510, (4S)-N-((R)-(4-chloro-2,5-difluorophenyl)(cyclopropyl)methyl)-4-fluoro-1-((2-(methylsulfonyl)-4-pyridinyl)carbonyl)-D-prolinamide], the AC1.4 came out at 2.2505 µM.
